The values below come from PubChem BioAssay AID2027 (NMMLSC, 2009).

For this experiment, the target named is Ras-related C3 botulinum toxin substrate 1 (Homo sapiens) (UniProt P63000). Description: analog inhibition of wildtype Rac1 nucleotide binding – biochemical, oxadiazole analogs, multiplex bead flow cytometry, SAR follow-up (AID 2027). The following applies: GST-Rac1 beads, Bodipy-FL-GTP binding, Ki calculated from EC50.
As for `COc1ccc(-c2noc(CCCCC(=O)N3CCN(c4cc(C)ccc4C)CC3)n2)cc1`, the Ki – broadly, the equilibrium dissociation constant of an inhibitor or competing ligand from its target – is 1960 nM. Then `COc1ccc(-c2noc(CCC(=O)N3CCN(c4ccc(C)cc4)CC3)n2)cc1`, with 250 nM; and `Cc1ccc(C)c(N2CCN(C(=O)CCc3nc(-c4ccc(F)cc4)no3)CC2)c1`, with 120 nM. Then `COc1ccc(-c2noc(CCC(=O)N3CCN(c4ccccc4OC)CC3)n2)cc1`, with 210 nM.

As for `COc1ccc(-c2noc(CCC(=O)N3CCN(c4ccc(OC)cc4)CC3)n2)cc1`, the inhibitory constant (Ki) is 50 nM. Take `COc1ccc(-c2noc(CCCC(=O)N3CCN(c4cc(C)ccc4C)CC3)n2)cc1`: the inhibition constant (Ki) was 350 nM. Then `Cc1ccc(C)c(N2CCN(C(=O)CCc3nc(-c4ccccc4F)no3)CC2)c1`, with 170 nM.

Regarding `Cc1ccc(C)c(N2CCN(C(=O)CCc3nc(-c4ccccc4Br)no3)CC2)c1`, the Ki was 160 nM. Regarding `Cc1ccc(C)c(N2CCN(C(=O)CCc3nc(-c4ccc(Br)cc4)no3)CC2)c1`, the inhibition constant Ki was 280 nM. Then `COc1ccc(-c2coc(CCC(=O)N3CCN(c4cc(C)ccc4C)CC3)n2)cc1`, with 210 nM; and `COc1ccc(-c2noc(CCC(=O)N3CCN(c4ccccc4C(F)(F)F)CC3)n2)cc1`, with 160 nM.

Consider `COc1ccccc1-c1noc(CCC(=O)N2CCN(c3cc(C)ccc3C)CC2)n1`, for which the inhibition constant Ki was 1410 nM.

For the compound `Cc1ccc(C)c(N2CCN(C(=O)CCc3nc(-c4ccccc4C)no3)CC2)c1`, the Ki is 160 nM.

With `COc1ccc(-c2noc(CCC(=O)N3CCC(c4cc(C)ccc4C)CC3)n2)cc1`, the inhibition constant (Ki) was 110 nM.

As for `Cc1ccc(C)c(N2CCN(C(=O)CCc3nc(-c4ccc(Cl)cc4)no3)CC2)c1`, the Ki is 170 nM. For `Cc1ccc(C)c(N2CCN(C(=O)CCc3nc(-c4ccccc4Cl)no3)CC2)c1` the value was 110 nM; for `COc1ccc(-c2noc(CCC(=O)N3CCN(c4ccccc4Cl)CC3)n2)cc1`, 310 nM; for `Cc1ccc(C)c(N2CCN(C(=O)CCc3nc(-c4ccccc4C(F)(F)F)no3)CC2)c1`, 200 nM. Then `COc1ccc(-c2noc(CCC(=O)N3CCN(c4cc(C)ccc4C)CC3)n2)cc1`, with 470 nM; and `COc1ccc(-c2noc(CCC(=O)N3CCN(c4cccc(C)c4C)CC3)n2)cc1`, with 120 nM; and `COc1ccc(-c2noc(CCC(=O)N3CCN(c4ccccc4C)CC3)n2)cc1`, with 130 nM. For `Cc1ccc(C)c(N2CCN(C(=O)CCc3nc(-c4ccccc4)no3)CC2)c1` the value was 150 nM; for `Cc1ccc(-c2noc(CCC(=O)N3CCN(c4cc(C)ccc4C)CC3)n2)cc1`, 300 nM; for `Cc1ccc(C)c(N2CCN(C(=O)CCc3nc(-c4ccc(N(C)C)cc4)no3)CC2)c1`, 260 nM. In the case of `COc1ccc(-c2noc(CCC(=O)N3CCN(c4ccccc4Br)CC3)n2)cc1`, the inhibition constant (Ki) is 160 nM.

Turning to `Cc1ccc(C)c(N2CCN(C(=O)CCc3nc(-c4cccc(Cl)c4)no3)CC2)c1`, the Ki is 460 nM. Then `Cc1ccc(C)c(N2CCN(C(=O)CCc3nc(-c4cccc(F)c4)no3)CC2)c1`, with 140 nM; and `Cc1ccc(C)c(N2CCN(C(=O)CCc3nc(-c4cccc(Br)c4)no3)CC2)c1`, with 160 nM; and `COc1ccc(-c2noc(CCC(=O)N3CCN(c4ccc(F)cc4)CC3)n2)cc1`, with 150 nM.

Take `Cc1cccc(-c2noc(CCC(=O)N3CCN(c4cc(C)ccc4C)CC3)n2)c1`: the Ki was 110 nM. Turning to `Cc1ccc(C)c(N2CCN(C(=O)CCc3nc(-c4ccc(C(F)(F)F)cc4)no3)CC2)c1`, the inhibition constant (Ki) is 200 nM. For `COc1ccc(-c2noc(CCC(=O)N3CCN(c4ccccc4F)CC3)n2)cc1` the value was 100 nM; for `COc1ccc(-c2noc(CC(=O)N3CCN(c4cc(C)ccc4C)CC3)n2)cc1`, 700 nM.

Take `COc1ccc(-c2noc(CCC(=O)N3CCN(c4ccc(Br)cc4)CC3)n2)cc1`: the inhibition constant (Ki) is 20 nM. Then `Cc1ccc(C)c(N2CCN(C(=O)CCc3nc(-c4cccc(C(F)(F)F)c4)no3)CC2)c1`, with 230 nM. For `COc1cccc(-c2noc(CCC(=O)N3CCN(c4cc(C)ccc4C)CC3)n2)c1`, the Ki was 570 nM.
